Data published in PubChem BioAssay (NCI).
Several values for one entry are separate records, joined by “and”; a condition that tells them apart may be missing. Equal entries are not always repeated.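 Compound exposure: 48 hours, 5 concentrations, 96-well plates. GI50 marks 50% less growth. TGI is the concentration that stops growth completely.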

Key:
Assay in all cases: NCI tumour cell line growth inhibition, 48 h
CAKI-1 renal = tested on: CAKI-1 renal
K-562 leukemia = tested on: K-562 leukemia
SK-MEL-28 melanoma = tested on: SK-MEL-28 melanoma
OVCAR-8 ovarian = tested on: OVCAR-8 ovarian
SF-539 CNS = tested on: SF-539 CNS
PC-3 prostate = tested on: PC-3 prostate
UACC-62 melanoma = tested on: UACC-62 melanoma
MDA-N = tested on: MDA-N
HOP-92 NSCLC = tested on: HOP-92 NSCLC
LOX IMVI melanoma = tested on: LOX IMVI melanoma

| Structure (SMILES) | TGI (CAKI-1 renal) | TGI (K-562 leukemia) | TGI (SK-MEL-28 melanoma) | TGI (OVCAR-8 ovarian) | TGI (SF-539 CNS) [µM] | TGI (PC-3 prostate) [µM] | TGI (UACC-62 melanoma) | TGI (MDA-N) [µM] | TGI (HOP-92 NSCLC) | TGI (LOX IMVI melanoma) | GI50 (CAKI-1 renal) | GI50 (K-562 leukemia) [nM] | GI50 (SK-MEL-28 melanoma) [nM] | GI50 (OVCAR-8 ovarian) [nM] | GI50 (SF-539 CNS) [nM] | GI50 (UACC-62 melanoma) [nM] | GI50 (HOP-92 NSCLC) [nM] | GI50 (LOX IMVI melanoma) [nM] |
| --- | --- | --- | --- | --- | --- | --- | --- | --- | --- | --- | --- | --- | --- | --- | --- | --- | --- | --- |
| O=C(CCC(=O)c1ccc(Cl)cc1)NO | > 100 µM | > 100 µM | > 100 µM | > 100 µM | > 100 | > 100 | > 100 µM | > 100 | > 100 µM | > 100 µM |  |  |  |  |  |  |  |  |
| CCOC(=O)C(NC(C)=O)(Nc1ccc(F)cc1)C(F)(F)F (stereo not given) | > 100 µM | > 100 µM | > 100 µM | > 100 µM | > 100 | > 100 | > 100 µM | > 100 | > 100 µM | > 100 µM |  |  |  |  |  |  |  |  |
| O=c1[nH][nH]c(=O)n1Cc1ccccc1Cn1c(=O)[nH][nH]c1=O | > 100 µM | > 100 µM | > 100 µM | > 100 µM | > 100 | > 100 | > 100 µM | > 100 | > 100 µM | > 100 µM |  |  |  |  |  |  |  |  |
| COc1ccc(C2c3cc4c(cc3OC(NNS(=O)(=O)c3ccc(C)cc3)C2C)OCO4)cc1 (stereo not given) | > 100 µM | > 100 µM | > 100 µM | > 100 µM | > 100 | > 100 | > 100 µM | > 100 | 85.3 µM | > 100 µM |  |  |  |  |  |  |  |  |
| O=C(O)CN(CC(=O)O)C1CCCCC1N(CC(=O)O)CC(=O)NCCN=C=S (stereo not given) | > 100 µM | > 100 µM | > 100 µM | > 100 µM | > 100 | > 100 | > 100 µM | > 100 | > 100 µM | > 100 µM |  |  |  |  |  |  |  |  |
| COc1cc(/C=C/C(=N\NS(=O)(=O)c2ccc(C)cc2)c2sc(NNC(C)=O)nc2C)ccc1O | > 100 µM |  | > 100 µM | > 100 µM | > 100 | > 100 | > 100 µM | > 100 | > 100 µM | > 100 µM |  |  |  |  |  |  |  |  |
| Cc1cc(=O)[nH]c(NN2C(Cl)C(=O)C2c2ccccc2O)n1 (stereo not given) | > 100 µM | > 100 µM | > 65.4 µM | > 100 µM | > 58.6 | > 100 | > 46.7 µM | > 100 | 32.4 µM | > 100 µM |  |  |  |  |  |  |  |  |
| Cc1c2cnccc2c(C)c2c1c1ccccc1n2CCCN | 1.9 µM and 1.41 µM | 0.794 µM and 0.598 µM | 1.98 µM and 1.25 µM | 1.41 µM and 1.22 µM | 1.35 | 0.644 | 1.7 µM and 1.75 µM | 1.39 | 1.22 µM and 2.14 µM | 0.402 µM and 0.569 µM | 779 nM and 295 nM | 40.2 | 333 | 205 | 317 | 517 | 776 | 163 |
| CC(C)CC(=O)OC[n+]1ccc(-c2c(COC(=O)NC(C)C)c(COC(=O)NC(C)C)c3n2CCC3)cc1 | > 100 µM | > 100 µM | > 100 µM | > 100 µM | > 100 | > 100 | > 100 µM | > 100 | > 100 µM | > 100 µM |  |  |  |  |  |  |  |  |
| O=[N+]([O-])C(=C1NCCN1)/C(Cl)=C(\Cl)Br | 30 µM | 31.2 µM | > 77.7 µM | > 100 µM | > 100 | > 100 | > 100 µM | > 100 | > 62.2 µM | 33.4 µM |  |  |  |  |  |  |  |  |
| Cc1ccc(SCC(CSCCO)OCn2cnc3c2NC(N)=NC32OCCO2)cc1 (stereo not given) | > 100 µM | > 100 µM | > 100 µM | > 100 µM | > 100 | > 100 |  | > 100 | > 100 µM | > 100 µM |  |  |  |  |  |  |  |  |
| O=C1OCC(O)=C1C(c1ccc(Cl)cc1)c1cc2c(cc1O)OCO2 (stereo not given) | > 100 µM | > 100 µM | > 100 µM |  | > 100 | > 100 | > 100 µM | > 100 | > 100 µM | > 100 µM |  |  |  |  |  |  |  |  |
| O=C1/C(=C/c2ccc(O)cc2)CC/C1=C\c1ccc(O)cc1 | > 100 µM | > 100 µM | > 100 µM | > 100 µM | > 100 | > 100 | > 100 µM | > 100 | > 100 µM | > 100 µM |  |  |  |  |  |  |  |  |
| Nc1cccc2cc(Cl)cnc12 | > 100 µM | > 100 µM | > 100 µM | > 100 µM | > 100 | > 100 | > 100 µM | > 100 | > 100 µM | > 100 µM |  |  |  |  |  |  |  |  |
| CCC1(O)CC2CC(=O)OC2C1O (stereo not given) | > 100 µM | > 100 µM | > 100 µM | > 100 µM | > 100 | > 100 | > 100 µM | > 100 | > 100 µM | > 100 µM |  |  |  |  |  |  |  |  |
| COc1c(C)c(C/C=C(\C)CCCCO[Si](c2ccccc2)(c2ccccc2)C(C)(C)C)c(OC)c(OC)c1OC | 48.1 µM | > 46.4 µM | > 100 µM | 35.6 µM | > 46.4 | > 100 | > 46.4 µM | > 46.4 | > 31.6 µM | 58.3 µM |  |  |  |  |  |  |  |  |
